According to US9133104B2 (Chroma Therapeutics Ltd., priority 2005, dated 2015):
pIC50: −log10 of the molar value.

Experiments:
[1] = tested on: HUT cancer cell line; assay: Cell inhibition assay (SRB cell viability), HUT; assay type: cell-based; conditions: HUT cells, 72 h, IC50 range
How it was run: (§1)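 Log-phase Hela, U937 and HUT cells were seeded at 1000 cells/well, grown 24 h, then exposed to compound (20 uM final) for 72 h. Viability was read by sulphorhodamine B staining and expressed as % inhibition relative to DMSO control. IC50 values came from sigmoidal variable-slope fits of eight concentrations.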

[2] = tested on: U937 cancer cell line; assay: Cell inhibition assay (SRB cell viability), U937; assay type: cell-based; conditions: Homo sapiens, U-937, U937 cells, 72 h, IC50 range
How it was run: as §1

[3] = target: T1, histone deacetylase activity (HeLa nuclear extract); assay: HDAC fluorescent activity assay (Biomol Fluor de Lys), HeLa nuclear extract; assay type: biochemical; conditions: Fluor de Lys substrate, IC50 range
T1 construct: Histone deacetylase activity from crude nuclear extract derived from HeLa cells was used for screening
How it was run: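 Crude HeLa nuclear extract (20 mM Hepes, 100 mM KCl, 0.2 mM EDTA, 0.5 mM DTT, 0.2 mM PMSF, 20% glycerol) incubated with acetyl-lysine Fluor de Lys substrate ± inhibitor; developer generates fluorophore. Background-subtracted % of vehicle control; IC50 from eight-point variable-slope sigmoidal fit.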

[4] = tested on: Hela cancer cell line; assay: Cell inhibition assay (SRB cell viability), Hela; assay type: cell-based; conditions: Homo sapiens, HeLa, 72 h, Hela cells, IC50 range
How it was run: as §1

Row | SMILES | pIC50 [1] | pIC50 [2] | pIC50 [3] | pIC50 [4]
1 | O=C(Cc1ccc(OCCCC(=O)N[C@@H](Cc2ccccc2)C(=O)OC2CCCC2)cc1)Nc1ccc2sc(C(=O)NO)cc2c1 [Compound 102, (S)-2-(4-{4-[(2-Hydroxycarbamoyl-benzo[b]thiophen-5-ylcarbamoyl)-methyl]-phenoxy}-butyrylamino)-3-phenyl-propionic acid cyclopentyl ester] | < 5.48 | 5.48 to 6.48 | 6.00 to 7.00 | < 5.48
2 | CC(OC(C)(C)C)[C@H](NCc1ccc(CNCc2ccc3cc(C(=O)NO)sc3c2)cc1)C(=O)OC1CCCC1 (stereo partly drawn) [Compound 108, (S)-3-tert-Butoxy-2-(4-{[(2-hydroxycarbamoyl-benzo[b]thiophen-6-ylmethyl)-amino]-methyl}-benzylamino)-butyric acid cyclopentyl ester] | 5.48 to 6.48 | 5.48 to 6.48 | 6.00 to 7.00 | 5.48 to 6.48
3 | CC(C)(C)OC[C@H](NCc1ccc(CNCc2ccc3cc(C(=O)NO)sc3c2)cc1)C(=O)OC1CCCC1 [Compound 109, (S)-3-tert-Butoxy-2-(4-{[(2-hydroxycarbarnoyl-benzo[b]thiophen-6-ylmethyl)-amino]-methyl}-benzylamino)-propionic acid cyclopentyl ester] | 5.48 to 6.48 | > 6.48 | > 7.00 | 5.48 to 6.48
4 | CC(C)(C)SC[C@H](NCc1ccc(CNCc2ccc3cc(C(=O)NO)sc3c2)cc1)C(=O)OC1CCCC1 [Compound 113, (R)-3-tert-Butylsulfanyl-2-(4-{[(2-hydroxycarbamoyl-benzo[b]thiophen-6-ylmethyl)-amino]-methyl}-benzylamino)-propionic acid cyclopentyl ester] | 5.48 to 6.48 | 5.48 to 6.48 | 6.00 to 7.00 | 5.48 to 6.48
5 | CC(C)(C)[C@H](NCc1ccc(CNCc2ccc3cc(C(=O)NO)sc3c2)cc1)C(=O)OC1CCCC1 [Compound 115, (S)-2-(4-{[(2-Hydroxycarbamoyl-benzo[b]thiophen-6-ylmethyl)-amino]-methyl}-benzylamino)-3,3-dimethyl-butyric acid cyclopentyl ester] | 5.48 to 6.48 | 5.48 to 6.48 | 6.00 to 7.00 | 5.48 to 6.48
6 | O=C(NO)c1cc2ccc(CNCc3ccc(CN[C@H](C(=O)OC4CCCC4)C4CCCCC4)cc3)cc2s1 [Compound 116, (S)-Cyclohexyl-(4-{[(2-hydroxycarbamoyl-benzo[b]thiophen-6-ylmethyl)-amino]-methyl}-benzylamino)-acetic acid cyclopentyl ester] | < 5.48 | 5.48 to 6.48 | 6.00 to 7.00 | < 5.48
7 | CC(C)C[C@H](NCc1ccc(CNCc2ccc3cc(C(=O)NO)sc3c2)cc1)C(=O)OC1CCCC1 [Compound 122] | 5.48 to 6.48 | > 6.48 | > 7.00 | 5.48 to 6.48
8 | O=C(NO)c1cc2ccc(CNCc3ccc(CN[C@H](C(=O)OC4CCCC4)c4ccccc4)cc3)cc2s1 [Compound 124, (S)-(4-{[(2-Hydroxycarbamoyl-benzo[b]thiophen-6-ylmethyl)-amino]-methyl}-benzylamino)-phenyl-acetic acid cyclopentyl ester] | 5.48 to 6.48 | > 6.48 | 6.00 to 7.00 | 5.48 to 6.48
9 | O=C(NO)c1cc2ccc(CNc3cccc(CN[C@H](C(=O)OC4CCCC4)c4ccccc4)c3)cc2s1 [Compound 130, (S)-{3-[(2-Hydroxycarbamoyl-benzo[b]thiophen-6-ylmethyl)-amino]-benzyl-amino}-phenyl-acetic acid cyclopentyl ester] | < 5.48 | 5.48 to 6.48 | < 6.00 | < 5.48
10 | O=C(NO)c1cc2ccc(CNc3cccc(CN[C@H](C(=O)OC4CCCC4)C4CCCCC4)c3)cc2s1 [Compound 131, (S)-{3-[(2-Hydroxycarbamoyl-benzo[b]thiophen-6-ylmethyl)-amino]-benzylamino}-cyclohexyl-acetic acid cyclopentyl ester] | < 5.48 | 5.48 to 6.48 | < 6.00 | < 5.48
11 | CC(C)(C)OC[C@H](NCc1cccc(NCc2ccc3cc(C(=O)NO)sc3c2)c1)C(=O)OC1CCCC1 [Compound 132, (S)-3-tert-Butoxy-2-{3-[(2-hydroxycarbamoyl-benzo[b]thiophen-6-ylmethyl)-amino]-benzylamino}-propionic acid cyclopentyl ester] | 5.48 to 6.48 | 5.48 to 6.48 | 6.00 to 7.00 | < 5.48
12 | CC(C)C[C@H](NCc1cccc(NCc2ccc3cc(C(=O)NO)sc3c2)c1)C(=O)OC1CCCC1 [Compound 133, (S)-2-{3-[(2-Hydroxycarbamoyl-benzo[b]thiophen-6-ylmethyl)-amino]-benzylamino}-4-methyl-pentanoic acid cyclopentyl ester] | < 5.48 | 5.48 to 6.48 | 6.00 to 7.00 | 5.48 to 6.48

Results, then the compound that gave them:

Row | pIC50 [1] | pIC50 [2] | pIC50 [3] | pIC50 [4] | SMILES
13 | 5.48 to 6.48 | 5.48 to 6.48 | 6.00 to 7.00 | < 5.48 | O=C(CCCCCCC(=O)Nc1ccc(CN[C@@H](Cc2ccccc2)C(=O)OC2CCCC2)cc1)NO [Compound 91, (S)-2-[4-(7-Hydroxycarbamoyl-heptanoylamino)-benzylamino]-3-phenyl-propionic acid cyclopentyl ester]
14 | 5.48 to 6.48 | 5.48 to 6.48 | > 7.00 | 5.48 to 6.48 | O=C(CCCCCCC(=O)Nc1cccc(OCCCC(=O)N[C@H](C(=O)OC2CCCC2)c2ccccc2)c1)NO [Compound 92, (S)-{4-[3-(7-Hydroxycarbamoyl-heptanoylamino)-phenoxy]-butyrylamino}-phenyl-acetic acid cyclopentyl ester]
15 | 5.48 to 6.48 | 5.48 to 6.48 | 6.00 to 7.00 | < 5.48 | CC(C)C[C@H](NC(=O)[C@@H]1Cc2ccc(NC(=O)CCCCCCC(=O)NO)cc2CN1)C(=O)OC1CCCC1 [Compound 96, (S)-2-{[(S)-7-(7-Hydroxycarbamoyl-heptanoylamino)-1,2,3,4-tetrahydro-isoquinoline-3-carbonyl]-amino}-4-methyl-pentanoic acid cyclopentyl ester]
16 | 5.48 to 6.48 | 5.48 to 6.48 | 6.00 to 7.00 | 5.48 to 6.48 | CC(C)C[C@H](NC(=O)c1ccc(NC(=O)CCCCCCC(=O)NO)cc1)C(=O)OC1CCCC1 [Compound 98, (S)-2-[4-(7-Hydroxycarbamoyl-heptanoylamino)-benzoylamino]-4-methyl-pentanoic acid cyclopentyl ester]
17 | 5.48 to 6.48 | 5.48 to 6.48 | > 7.00 | < 5.48 | O=C(CCCCCCNC(=O)c1cc2cc(CCC(=O)N[C@@H](Cc3ccccc3)C(=O)OC3CCCC3)ccc2[nH]1)NO [Compound 100, (S)-2-{3-[2-(6-Hydroxycarbamoyl-hexylcarbamoyl)-1H-indol-5-yl]-propionylamino}-3-phenyl-propionic acid cyclopentyl ester]
18 | 5.48 to 6.48 | > 6.48 | 6.00 to 7.00 | 5.48 to 6.48 | O=C(NO)c1cc2ccc(CNCc3ccc(CN[C@@H](Cc4ccccc4)C(=O)OC4CCCC4)cc3)cc2s1 [Compound 104, (S)-2-(4-{[(2-Hydroxycarbamoyl-benzo[b]thiophen-6-ylmethyl)-amino]-methyl}-benzylamino)-3-phenyl-propionic acid cyclopentyl ester]
19 | > 6.48 | > 6.48 | > 7.00 | 5.48 to 6.48 | O=C(NO)c1cc2ccc(CNCc3ccc(CN[C@@H](Cc4ccc(O)cc4)C(=O)OC4CCCC4)cc3)cc2s1 [Compound 106, (S)-2-(4-{[(2-Hydroxycarbamoyl-benzo[b]thiophen-6-ylmethyl)-amino]-methyl}-benzylamino)-3-(4-hydroxy-phenyl)-propionic acid cyclopentyl ester]
20 | > 6.48 | > 6.48 | > 7.00 | 5.48 to 6.48 | CSCC[C@H](NCc1ccc(CNCc2ccc3cc(C(=O)NO)sc3c2)cc1)C(=O)OC1CCCC1 [Compound 110, (S)-2-(4-{[(2-Hydroxycarbamoyl-benzo[b]thiophen-6-ylmethyl)-amino]-methyl}-benzylamino)-4-methylsulfanyl-butyric acid cyclopentyl ester]
21 | > 6.48 | > 6.48 | > 7.00 | > 6.48 | O=C(NO)c1cc2ccc(CNCc3ccc(CN4CCC[C@H]4C(=O)OC4CCCC4)cc3)cc2s1 [Compound 111, (S)-1-(4-{[(2-Hydroxycarbamoyl-benzo[b]thiophen-6-ylmethyl)-amino]-methyl}-benzyl)-pyrrolidine-2-carboxylic acid cyclopentyl ester]
22 | > 6.48 | > 6.48 | > 7.00 | > 6.48 | C[C@H](NCc1ccc(CNCc2ccc3cc(C(=O)NO)sc3c2)cc1)C(=O)OC1CCCC1 [Compound 118, (S)-2-(4-{[(2-Hydroxycarbamoyl-benzo[b]thiophen-6-ylmethyl)-amino]-methyl}-benzylamino)-propionic acid cyclopentyl ester]
23 | > 6.48 | > 6.48 | 6.00 to 7.00 | 5.48 to 6.48 | CC(C)C[C@H](NCC1CCC(CNCc2ccc3cc(C(=O)NO)sc3c2)CC1)C(=O)OC1CCCC1 (stereo partly drawn) [Compound 128, (S)-2-[(4-{[(2-Hydroxycarbamoyl-benzo[b]thiophen-6-ylmethyl)-amino]-methyl}-cyclohexylmethyl)-amino]-4-methyl-pentanoic acid cyclopentylester]
